Results taken from patent US20080051463A1, “ANTHRACENE COMPOUNDS AND THEIR USE FOR TREATING BENIGN AND MALIGNANT TUMOR DISORDERS” (AETERNA ZENTARIS GmbH, priority 2006, published 2008).
In brackets after ≈: the same amount, converted by molar mass. Several values for one entry are separate records, joined by “and”; a condition that tells them apart may be missing. Equal values may be shown once.

Tests used:
[1] = test system: RKOp27 human colon carcinoma cells; assay: Proliferation test, RKOp27 cell system without p27kiP1 expression; type: cell-based; conditions: RKOp27 without expression of p27kiP1
Source text: (§1) The antiproliferative activity of the compounds 1, 2, 4, 6, 7, 9, 10, 11, 12 and 13 according to the invention was investigated in a proliferation test performed on established tumor cell lines (D. A. Scuderio et al. Cancer Res. 1988, 48: 4827-4833).
(§2) The test used determines the cellular dehydrogenase activity and makes it possible to determine cell viability and determine cell number indirectly.
(§3) The cell lines used are the human cervical carcinoma cell line KB/HeLa (ATCC CCL17), the ovarian adenocarcinoma cell line SKOV-3 (ATCC HTB77), the human glioblastoma cell line SF-268 (NCI-503138) and the lung carcinoma cell line NCI-H460 (NCI-503473). In addition, an RKOp27 cell system was used for investigating the cell cycle-specific effect of the substance (M. Schmidt et al. Oncogene 2000, 19(20): 2423-9).
(§4) RKO is a human colon carcinoma line in which expression of the cell cycle inhibitor p27^kiP1 can be induced using the ecdysone expression system and lead to cell cycle arrest specifically in […].
(§5) By contrast, cell cycle-specific substances, such as, for example, tubulin inhibitors, are only cytotoxic when cells are not arrested and the cell cycle is passed through.

[2] = test system: human cervical carcinoma cell line KB/HeLa; assay: Proliferation test (cellular dehydrogenase activity), KB/HeLa; type: cell-based
Source text: as §1, §2, §3

[3] = test system: T1, porcine brain tubulin; assay: Inhibition of the polymerization of porcine brain tubulin (turbidimetric); type: biochemical; conditions: porcine brain tubulin with about 15% MAPs, GTP, 37° C.
T1 construct: In addition to tubulin, the protein used comprises about 15% of associated proteins (MAPs)
Procedure: b) In an in vitro test, the compounds 1, 2, 4 and 7 were tested for inhibition of the polymerization of porcine brain tubulin. In this test, tubulin purified by polymerization and depolymerization cycles is used (Shelanski et al. Proc. Natl. Acad. Sci. U.S.A. 1973, 70, 765-768 modified according to Vater et al. Acta Histochem. Suppl. 1986, 33, 123-129), which is polymerized by addition of GTP and heating to 37° C. In addition to tubulin, the protein used comprises about 15% of associated proteins (MAPs). The measurement values were determined turbidimetrically according to Gaskin et al. J. Mol. Biol. 89 (1974) 737-755.
Table 3 states the EC50 value of the polymerization inhibition.

[4] = test system: ovarian adenocarcinoma cell line SKOV-3; assay: Proliferation test (cellular dehydrogenase activity), SK-OV-3; type: cell-based; conditions: Homo sapiens
Source text: as §1, §2, §3

[5] = test system: RKOp27 human colon carcinoma cells, p27kiP1 induced; assay: Proliferation test, RKOp27 cell system with induced p27kiP1 expression; type: cell-based; conditions: RKOp27 with induced expression of p27kiP1, read-out: RKOP27ind EC50
Source text: as §1, §2, §3, §4, §5

[6] = test system: human glioblastoma cell line SF-268; assay: Proliferation test (cellular dehydrogenase activity), SF-268; type: cell-based
Source text: as §1, §2, §3

[7] = test system: lung carcinoma cell line NCI-H460; assay: Proliferation test (cellular dehydrogenase activity), NCI-H460; type: cell-based; conditions: Homo sapiens
Source text: as §1, §2, §3

[8] = test system: murine P388 cell line; assay: XTT antiproliferative test, P388; type: cell-based; conditions: P388 wild type; for IC50: Mus musculus, P388, XTT; for P388 IC50: XTT
Source text: (§6) For further characterization, the compounds 6 and 7 according to the invention were investigated with regard to multidrug-resistant (MDR) cell lines as compared with the nonresistant wild-type cell lines.
(§7) The murine P388 cell line (methylcholanthrene-induced lymphoid neoplasm) [R. Supino et al.; Inst. Nazionale per lo Studio e las cura die Tumori; Milan)] and the doxorubicin-resistant P388 cell line (NSC-123127) were also included as test systems.

[9] = test system: acute myeloid leukaemia cell line LT12; assay: XTT antiproliferative test, LT12; type: cell-based; conditions: LT12 wild type; for IC50: Rattus norvegicus, LT12, XTT; for LT12 IC50: XTT
Source text: as §6
(§8) The cell lines which were investigated are the murine cell line L1210 (ATCC CCL219), the acute myeloid leukaemia cell line LT12 (De Vries et al.; University Rotterdam) and the resistant lines L1210/VCR (Asta Medica Laboratory) and LT12/mdr (De Vries et al.; University Rotterdam).

[10] = test system: murine cell line L1210; assay: XTT antiproliferative test, L1210; type: cell-based; conditions: L1210 wild type; for IC50: Mus musculus, L1210, XTT; for L1210 IC50: XTT
Source text: as §6, §8

[11] = test system: doxorubicin-resistant P388 cell line; assay: XTT antiproliferative test, doxorubicin-resistant P388; type: cell-based, murine; conditions: for IC50: Mus musculus, P388, XTT, read-out: P388ADR IC50; for P388ADR IC50: XTT
Source text: as §6, §7

[12] = test system: bovine tubulin; assay: Inhibition of the polymerization of bovine tubulin (in vitro); type: biochemical; conditions: for Inhibition at 10 μg/ml [%]: tubulin with 30% associated proteins (MAPs), repeat values; for EC50 of polymerization inhibition of tubulin: bovine tubulin with 30% associated proteins (MAPs)
Source text: In this test, tubulin purified by polymerization and depolymerization cycles is used, which is polymerized by addition of GTP and heating.
Table 1 states the %-inhibition values and Table 2 states the EC50 values of polymerization inhibition of tubulin with 30% associated proteins (MAPs).

[13] = test system: resistant line LT12/mdr; assay: XTT antiproliferative test, LT12/mdr; type: cell-based
Source text: as §6, §8

[14] = test system: resistant line L1210/VCR; assay: XTT antiproliferative test, L1210/VCR; type: cell-based, murine
Source text: as §6, §8

Compound	EC50 [1]	melting point	EC50 [2]	EC50 of the polymerization inhibition [3]	EC50 [4]	EC50 [5]	EC50 [6]	EC50 [7]	Inhibition at 10 μg/ml [%] [12]	other results
O=C1c2ccccc2C(=CC(=O)N2CCSCC2)c2ccccc21 [Compound 3, 10-(2-oxo-2-thiomorpholin-4-ylethylidene)-10H-anthracen-9-one]	–	177 to 178 °C	–	–	–	–	–	–	–	–
COc1ccc(C(=O)C=C2c3ccccc3C(O)c3ccccc32)cc1 (stereo not shown) [Compound 4, 2-(10-hydroxy-10H-anthracen-9-ylidene)-1-(4-methoxy-phenyl)-ethanone]	0.108 µg/mL (≈ 0.315 µM)	169 to 172 °C	0.181 µg/mL (≈ 0.529 µM)	1.2 µg/mL	0.171 µg/mL (≈ 0.499 µM)	> 3.16 µg/mL	0.227 µg/mL (≈ 0.663 µM)	0.203 µg/mL (≈ 0.593 µM)	–	–
COc1ccc(C(=O)C=C2c3ccccc3C(=O)c3ccccc32)cc1OC [Compound 6, 10-[2-(3,4-dimethoxy-phenyl)-2-oxo-ethylidene]-9(10H)-anthracenone]	0.24 µg/mL (≈ 0.648 µM)	160 °C	0.458 µg/mL (≈ 1.24 µM)	–	–	> 3.16 µg/mL	–	0.29 µg/mL (≈ 0.783 µM)	68.9% and 86.1% and 99.0%	IC50 [8]: 0.35 µg/mL (≈ 0.945 µM); P388 IC50 [8]: 0.39 µg/mL; IC50 [9]: 0.1 µg/mL (≈ 0.27 µM); LT12 IC50 [9]: 0.17 µg/mL; IC50 [10]: 0.32 µg/mL (≈ 0.864 µM); L1210 IC50 [10]: 0.35 µg/mL; IC50 [11]: 0.25 µg/mL (≈ 0.675 µM); P388ADR IC50 [11]: 0.49 µg/mL
COc1ccc(C(=O)C=C2c3ccccc3C(=O)c3ccccc32)c(O)c1OC [Compound 8, 10-[2-(2-hydroxy-3,4-dimethoxy-phenyl)-2-oxo-ethylidene]-10H-anthracen-9-one]	–	176 to 178 °C	–	–	–	–	–	–	–	–
Cc1ccc(C(=O)C=C2c3ccccc3C(=O)c3ccccc32)cc1 [Compound 9, 10-(2-oxo-2-p-tolyl-ethylidene)-10H-anthracen-9-one]	0.09 µg/mL (≈ 0.277 µM)	129 °C	0.2 µg/mL (≈ 0.617 µM)	–	0.13 µg/mL (≈ 0.401 µM)	> 3.16 µg/mL	0.2 µg/mL (≈ 0.617 µM)	0.11 µg/mL (≈ 0.339 µM)	98.3% and 99.8% and 100.0%	EC50 of polymerization inhibition of tubulin [12]: 0.49 µg/mL

Continued, in another order:

EC50 [1]	melting point	EC50 [2]	EC50 of the polymerization inhibition [3]	EC50 [4]	EC50 [5]	EC50 [6]	EC50 [7]	Compound	Inhibition at 10 μg/ml [%] [12]	other results
0.802 µg/mL (≈ 2.32 µM)	200 to 201 °C	0.248 µg/mL (≈ 0.716 µM)	2.3 µg/mL	0.416 µg/mL (≈ 1.2 µM)	> 3.16 µg/mL	0.331 µg/mL (≈ 0.956 µM)	0.931 µg/mL (≈ 2.69 µM)	COc1csc(C(=O)C=C2c3ccccc3C(=O)c3ccccc32)c1 [Compound 2, 10-[2-(4-methoxy-thiophen-2-yl)-2-oxo-ethylidene]-10H-anthracen-9-one]	–	–
–	189 to 190 °C	–	–	–	–	–	–	COc1ccc(N2CCN(C(=O)C=C3c4ccccc4C(=O)c4ccccc43)CC2)cc1 [Compound 5, 10-{2-[4-(4-methoxy-phenyl)-piperazin-1-yl]-2-oxo-ethylidene}-10H-anthracen-9-one]	–	–
0.027 µg/mL (≈ 0.0793 µM)	120 to 122 °C	0.02 µg/mL (≈ 0.0588 µM)	0.5 µg/mL	0.02 µg/mL (≈ 0.0588 µM)	> 3.16 µg/mL	0.02 µg/mL (≈ 0.0588 µM)	0.025 µg/mL (≈ 0.0734 µM)	COc1ccc(C(=O)C=C2c3ccccc3C(=O)c3ccccc32)cc1 [Compound 7, 10-[2-(4-methoxy-phenyl)-2-oxo-ethylidene]-10H-anthracen-9-one]	99.1% and 100.0%	IC50 ([13]; Rattus norvegicus, LT12, XTT, read-out: LT12mdr IC50): 0.015 µg/mL (≈ 0.0441 µM); LT12mdr IC50 ([13]; XTT): 0.020 µg/mL; IC50 [8]: 0.014 µg/mL (≈ 0.0411 µM); P388 IC50 [8]: 0.015 µg/mL; IC50 ([14]; Mus musculus, L1210, XTT, read-out: L1210VCR IC50): 0.017 µg/mL (≈ 0.0499 µM); L1210VCR IC50 ([14]; XTT): 0.018 µg/mL; IC50 [9]: 0.015 µg/mL (≈ 0.0441 µM); LT12 IC50 [9]: 0.019 µg/mL; IC50 [10]: 0.016 µg/mL (≈ 0.047 µM); L1210 IC50 [10]: 0.017 µg/mL; IC50 [11]: 0.016 µg/mL (≈ 0.047 µM); P388ADR IC50 [11]: 0.018 µg/mL; EC50 of polymerization inhibition of tubulin [12]: 1.38 µg/mL and 1.50 µg/mL
